Results published in patent US6770632B1, “Folypolyglutamyl synthetase gene transfer to enhance antifolate” (priority 1999, dated 2004).
Several values for one entry are separate records, joined by “and”; a condition that tells them apart may be missing. Identical values can stand only once. Like-named read-outs stand apart in the source and are kept apart here.

Tests used:
[1] = system: 9L cells transfected with CD; details: 9L cells stably transfected with E. coli cytosine deaminase cDNA; cited from earlier work
[2] = system: cocultures with nitroreductase-expressing cells; details: cited from earlier work
[3] = system: 9L/FPGS cells; test: [3H]MTX accumulation and thin layer chromatography of MTX polyglutamates in 9L/FPGS cells; details: 24 hour exposure to 2 μM MTX, TLC
Procedure: (§3) Thin Layer Chromatography of MTX Metabolites: 10^6 9L or 9L/FPGS cells were plated in 6-cm diameter dishes and allowed to adhere for 4 hours, after which cells were incubated overnight with 2 μM 3′, 5′, 7-[^3H] methotrexate (Moravek Biochemicals; Brea, Calif.). Cells were then trypsinized, centrifuged, resuspended in 300 μL deionized water, and sonicated for 45 seconds at half-maximal power. Sonicated cells were centrifuged briefly to remove cellular debris, after which protein concentration was calculated using the Bradford protein assay. Proteins were precipitated with 1 mL methanol at −20° C. for 2 hr. Precipitated proteins were removed by centrifugation at 20,000 g for 30 min, and the supernatant was then concentrated to 30 μL under a stream of N2 at 37° C. on a Meyer N-Evap Analytical Evaporator (Organomation Associates Inc., Northborough, Mass.). A 1 μL aliquot was scintillation counted—cpm were converted into moles of drug taken up by determining the cpm of a known quantity of [^3H] MTX. […] Plates were eluted with a chloroforrn-methanol-acetic acid mixture (2:2:1) containing 20 mg/mL cetyl trimethylammonium bromide (Sigma). Following elution, the plates were placed under ordinary fluorescent light for 2 days, after which 20 nmol unlabelled standards were visualized under long-wave ultraviolet light. Plates were run in duplicate and the average RF values of the standards were: MTX=0.66; MTX-G1=0.59; MTX-G2=0.44, MTX-G3=0.33; MTX-G4=0.27; MTX-G5=0.25. Regions corresponding to where standards migrated were marked in the sample lane, scraped individually into scintillation vials, and counted. The amount of each radioactive metabolite in a sample lane was determined as a percentage of the total radioactivity recovered from that sample lane, after subtraction of the background counts obtained from lanes lacking radioactive sample.

[4] = system: 9L cells; test: [3H]MTX accumulation and thin layer chromatography of MTX polyglutamates in 9L cells; details: 24 hour exposure to 2 μM MTX, TLC
Procedure: as §3

[5] = system: 9L cells transfected with HSV-TK; details: 9L cells stably transfected with HSV-TK cDNA; cited from earlier work
[6] = system: mixed subcutaneous tumors 20% 9L/FPGS and 80% 9L cells; test: Growth of mixed subcutaneous tumors (20% 9L/FPGS + 80% 9L) in nude mice; assay type: in vivo; details: 3 mg/kg daily i.p.
Procedure: (§1) In Vivo Experiments: 10^5 9L or 9L/FPGS cells or a mixture of 8×10^5 9L+2×10^5 9L/FPGS cells in 200 μL DMEM were injected subcutaneously into the flanks of six week old female nude mice (NCr/Sed, nu/nu, 20 gm; Massachusetts General Hospital breeding colony). After 14 days, when the tumors had reached an average volume of 60 mm^3, the mice were randomly divided into experimental groups with five mice per group. Intraperitoneal injections of varying MTX or EDX doses dissolved in 200 μL 0.9% NaCl were administered either daily or every third day. Tumor size was measured weekly using calipers. Tumor volume was calculated as length×width×height, as described previously (Takamiya, Y., et al., Journal of Neuroscience Research 33:493-503 (1992)).

[7] = in vivo; details: nude, mouse, ip
[8] = system: subcutaneous 9L/FPGS tumors; test: Growth of subcutaneous 9L/FPGS tumors in nude mice; assay type: in vivo; details: 3 mg/kg daily i.p.
Procedure: as §1

[9] = system: 9L/BAG cells; test: Conditioned medium colony formation of 9L/BAG cells; assay type: cell-based, rat
Procedure: Four mL conditioned medium+2 mL fresh medium were added to 10-cm-diameter plates containing 9L/BAG cells plated overnight (1000 cells/dish, with a clonogenic efficiency of approximately 20%). Six days later, the cells were fixed with 4% paraformaldehyde in PBS. […] The next day, blue colonies greater than 1 mm in diameter were counted.
This conditioned medium was then added to 9L/BAG cells. A week later, the cells were stained for LacZ expression, which allowed colony formation to be assayed.

[10] = system: 9L cells; test: Cell culture survival study, 9L cells; assay type: cell-based, rat; details: Rattus norvegicus, 4 h, 9L, read-out: ED50 (the source's name)
Procedure: (§2) Cell Culture Survival Studies: Cells were plated in triplicate at 8×10^5 cells per 10-cm-diameter plate, and were allowed to adhere for 4 hours, after which the medium was replaced with medium containing MTX or EDX. […] Drug-free medium was then added, and three days later the cells were trypsinized and counted on a model ZM Coulter apparatus. Dose-response curves were generated using Sigma Plot 3.0, which employs curve-fitting parameters based on the Marquardt-Levenberg method (Marquardt, D. W., Siam, J., J. Soc. Indust. Appl. Math 11:431-441 (1963)).

[11] = system: FPGS; details: relative to MTX; cited from earlier work
[12] = system: cocultures of 9L/FPGS and 9L cells; test: Bystander effect study, cocultures of 9L/FPGS and 9L cells; assay type: cell-based, rat; details: for EC50: Rattus norvegicus, 4 h, 4 hrs drug exposure, FIG. 4b, read-out: ED50 (the source's name); for transmission efficiency (TE): 4 hour pulses
Procedure: For bystander effect studies, cells were plated in triplicate with varying combinations of 9L/FPGS and 9L cells such that the total number of cells was 8×10^5 per 10-cm-diameter plate. The same protocol of 4 hour cell adherence followed by 4 hour drug exposure, washes, growth in drug free medium for 3 days, and counting on a ZM coulter apparatus was then followed. […] Four mL conditioned medium+2 mL fresh medium were added to 10-cm-diameter plates containing 9L/BAG cells plated overnight (1000 cells/dish, with a clonogenic efficiency of approximately 20%). Six days later, the cells were fixed with 4% paraformaldehyde in PBS. Fixed cells were stained for LacZ by incubating overnight in a solution containing 35 mM potassium ferricyanide, 35 mM potassium ferrocyanide, 2 mM magnesium chloride, and 0.2% 5-bromo-4-chloro-3-indolyl-β-D galactoside (Xgal; Fisher Scientific Co.;Pittsburgh, Pa.) at pH=7.3 (Price, J., et al., Proceedings of the National Academy of Sciences USA 84:156-160 (1987)). The next day, blue colonies greater than 1 mm in diameter were counted.
However, a more quantitative approach is to generate a dose-response curve for nontransfected cells, transfected cells, and a coculture and to calculate the transmission efficiency (TE) for the coculture (Friedlos, F., et al., Journal of Medicinal Chemistry 40:1270-1275 (1997)). [formula]
The superscripts 0, N, and 100 designate the ED50 values for cultures containing 0, N, and 100% transfected cells.

[13] = system: subcutaneous 9L tumors; test: Growth of subcutaneous 9L tumors in nude mice; assay type: in vivo; details: 3 mg/kg daily i.p.
Procedure: as §1

[14] = system: 9L/FPGS cells; test: Cell culture survival study, 9L/FPGS cells; assay type: cell-based, rat; details: for EC50: Rattus norvegicus, 4 h, 9L/FPGS, read-out: ED50 (the source's name)
Procedure: as §2

[15] = system: rhabdomyosarcoma cell line; details: rhabdomyosarcoma cell line transfected with rabbit carboxylesterase cDNA; cited from earlier work
[16] = 4 hour pulse, repeat of the dose-response curve (Table 3 footnote c)
[17] = 4 hrs drug exposure, curves of FIG. 1 (MTX) / FIG. 3a (EDX)

SMILES: Nc1nc(=O)[nH]cc1F [5-fluorocytosine]
- ED50 shift nontransfected versus transfected cells [1]: 80 fold

SMILES: NC(=O)c1cc(N2CC2)c([N+](=O)[O-])cc1[N+](=O)[O-] [CB1954]
- TE values ([2]; 1% cocultures): above 50%
- TE values ([2]; 10% cocultures): above 70%

SMILES: CN(Cc1cnc2nc(N)nc(N)c2n1)c1ccc(C(=O)NC(CCC(=O)NC(CCC(=O)NC(CCC(=O)O)C(=O)O)C(=O)O)C(=O)O)cc1 (stereo not shown) [MTX-G2]
- POLYGLUTAMATE DISTRIBUTION (percentages of total sample lane radioactivity) [3]: 19%
- POLYGLUTAMATE DISTRIBUTION (percentages of total sample lane radioactivity) [4]: 15%

SMILES: Nc1nc(O)c2ncn(COC(CO)CO)c2n1 [ganciclovir]
- ED50 shift nontransfected versus transfected cells [5]: 500 fold

SMILES: CN(Cc1cnc2nc(N)nc(N)c2n1)c1ccc(C(=O)NC(CCC(=O)NC(CCC(=O)NC(CCC(=O)NC(CCC(=O)NC(CCC(=O)NC(CCC(=O)O)C(=O)O)C(=O)O)C(=O)O)C(=O)O)C(=O)O)C(=O)O)cc1 (stereo not shown) [MTX-G5]
- POLYGLUTAMATE DISTRIBUTION (percentages of total sample lane radioactivity) [3]: 3%
- POLYGLUTAMATE DISTRIBUTION (percentages of total sample lane radioactivity) [4]: 1%

SMILES: CN(Cc1cnc2nc(N)nc(N)c2n1)c1ccc(C(=O)NC(CCC(=O)NC(CCC(=O)NC(CCC(=O)NC(CCC(=O)O)C(=O)O)C(=O)O)C(=O)O)C(=O)O)cc1 (stereo not shown) [MTX-G3]
- POLYGLUTAMATE DISTRIBUTION (percentages of total sample lane radioactivity) [3]: 18%
- POLYGLUTAMATE DISTRIBUTION (percentages of total sample lane radioactivity) [4]: 13%

SMILES: CCC(Cc1cnc2nc(N)nc(N)c2n1)c1ccc(C(=O)N[C@@H](CCC(=O)O)C(=O)O)cc1 (stereo partly shown) [EDX, Edatrexate]
- fold growth of tumor volume ([6]; after three weeks): 5 fold
- fold growth of tumor volume ([6]; after two weeks): more than 4 fold
- MTD [7]: 3 mg/kg/day
- growth of tumor volume ([8]; after three weeks): doubled in volume
- fold growth of tumor volume ([8]; after two weeks): less than 4 fold
- 9L/BAG colonies relative to conditioned medium from non-treated cells ([9]; conditioned medium from 9L cells pulsed with 0.3 μM for 4 hours): 83%
- 9L/BAG colonies relative to conditioned medium from non-treated cells ([9]; conditioned medium from 9L/FPGS cells pulsed with 0.3 μM for 4 hours): 47%
- EC50 [10, 16]: 1200 nM
- EC50 ([10]; 4 hrs drug exposure, bystander experiment FIG. 4b): 895 nM
- EC50 [10, 17]: 1200 nM
- Km of FPGS, lower than its Km for MTX [11]: 4-5 fold
- EC50 ([12]; coculture 1% 9L/FPGS): 605 nM
- EC50 ([12]; coculture 10% 9L/FPGS): 337 nM
- EC50 ([12]; coculture 20% 9L/FPGS): 134 nM
- transmission efficiency (TE) ([12]; cocultures containing 1% 9L/FPGS cells): 33.1% and 33%
- transmission efficiency (TE) ([12]; cocultures containing 10% 9L/FPGS cells): 63.8% and 64%
- transmission efficiency (TE) ([12]; cocultures containing 20% 9L/FPGS cells): 87%
- fold growth of tumor volume ([13]; after three weeks): 10 fold
- fold growth of tumor volume ([13]; after two weeks): 8 fold
- survival ([14]; 9L/FPGS cells, 300 nM, 4 hour pulse): below 10%
- range of concentrations with statistically significant difference in survival between 9L and 9L/FPGS ([14]; 4 hour pulses): 10,000 fold
- difference in ED50 between 9L and 9L/FPGS ([14]; 4 hour pulses, FIG. 1 / FIG. 3A): 67 fold
- EC50 [14, 16]: 26 nM
- EC50 ([14]; 4 hrs drug exposure, bystander experiment FIG. 4a (MTX) / 4b (EDX)): 20 nM
- EC50 [14, 17]: 18 nM

SMILES: CN(Cc1cnc2nc(N)nc(N)c2n1)c1ccc(C(=O)NC(CCC(=O)NC(CCC(=O)NC(CCC(=O)NC(CCC(=O)NC(CCC(=O)O)C(=O)O)C(=O)O)C(=O)O)C(=O)O)C(=O)O)cc1 (stereo not shown) [MTX-G4]
- POLYGLUTAMATE DISTRIBUTION (percentages of total sample lane radioactivity) [3]: 28%
- POLYGLUTAMATE DISTRIBUTION (percentages of total sample lane radioactivity) [4]: 13%

SMILES: CN(Cc1cnc2nc(N)nc(N)c2n1)c1ccc(C(=O)NC(CCC(=O)NC(CCC(=O)O)C(=O)O)C(=O)O)cc1 (stereo not shown) [MTX-G1]
- POLYGLUTAMATE DISTRIBUTION (percentages of total sample lane radioactivity) [3]: 22%
- POLYGLUTAMATE DISTRIBUTION (percentages of total sample lane radioactivity) [4]: 29%

SMILES: CCc1c2c(nc3ccc(OC(=O)N4CCC(N5CCCCC5)CC4)cc13)-c1cc3c(c(=O)n1C2)COC(=O)[C@]3(O)CC [CPT-11]
- decrease in ED50 on transfection [15]: 8 fold
